According to ChEMBL document CHEMBL1159145 (Bioorg Med Chem Lett, 1992):

Legend:
[1] = target: T1, Substance-P receptor (Rattus norvegicus, UniProt P14600); test: Binding affinity towards Tachykinin receptor 1 in rat cerebral cortex membranes was determined by using 125 [I]-BHSP as radioligand; type: cell membranes, Membrane
[2] = target: Substance-P receptor (Cavia porcellus, UniProt P30547); test: Binding affinity towards Tachykinin receptor 1 binding in guinea pig cerebral cortex membranes was determined using [3H]SP as the radioligand; type: tissue-based, Membrane
Sequence of Substance-P receptor (Cavia porcellus, UniProt P30547) (P30547 whole entry): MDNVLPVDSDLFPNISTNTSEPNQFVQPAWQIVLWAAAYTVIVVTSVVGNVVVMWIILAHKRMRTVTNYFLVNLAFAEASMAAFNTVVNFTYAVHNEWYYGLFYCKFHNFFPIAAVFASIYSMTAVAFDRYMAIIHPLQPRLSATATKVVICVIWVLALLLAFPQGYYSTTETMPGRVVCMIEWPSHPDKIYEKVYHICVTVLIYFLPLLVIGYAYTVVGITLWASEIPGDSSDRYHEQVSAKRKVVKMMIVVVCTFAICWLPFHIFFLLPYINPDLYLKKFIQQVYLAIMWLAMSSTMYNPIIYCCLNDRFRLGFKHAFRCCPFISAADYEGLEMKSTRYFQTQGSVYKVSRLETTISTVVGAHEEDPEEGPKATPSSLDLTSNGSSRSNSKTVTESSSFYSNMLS

[3] = target: T2, Neuromedin-K receptor (Rattus norvegicus, UniProt P16177); test: Ability to displace the binding of [3H]-Senktide to Tachykinin receptor 3 in rat cerebral cortex membranes was determined.; type: cell membranes, Membrane
T2 sequence (P16177 whole entry): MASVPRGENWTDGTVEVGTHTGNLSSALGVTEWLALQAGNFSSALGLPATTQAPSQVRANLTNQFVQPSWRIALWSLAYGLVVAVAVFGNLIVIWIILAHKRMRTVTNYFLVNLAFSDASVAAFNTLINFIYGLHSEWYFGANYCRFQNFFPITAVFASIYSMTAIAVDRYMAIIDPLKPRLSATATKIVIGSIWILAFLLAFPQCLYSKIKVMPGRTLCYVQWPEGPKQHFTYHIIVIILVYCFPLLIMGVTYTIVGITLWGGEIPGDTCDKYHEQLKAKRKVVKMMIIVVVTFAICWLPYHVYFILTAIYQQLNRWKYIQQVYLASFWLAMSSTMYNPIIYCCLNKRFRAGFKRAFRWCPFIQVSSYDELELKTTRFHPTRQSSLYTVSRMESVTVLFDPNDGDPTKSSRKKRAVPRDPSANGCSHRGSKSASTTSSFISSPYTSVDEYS

[4] = target: T3, Substance-K receptor (Mesocricetus auratus, UniProt P51144); test: Ability to displace the binding of [125I]iodohistidyl-NKA to Tachykinin receptor 2 in hamster urinary bladder membranes was determined.; type: cell membranes, Membrane
T3 sequence (P51144 whole entry): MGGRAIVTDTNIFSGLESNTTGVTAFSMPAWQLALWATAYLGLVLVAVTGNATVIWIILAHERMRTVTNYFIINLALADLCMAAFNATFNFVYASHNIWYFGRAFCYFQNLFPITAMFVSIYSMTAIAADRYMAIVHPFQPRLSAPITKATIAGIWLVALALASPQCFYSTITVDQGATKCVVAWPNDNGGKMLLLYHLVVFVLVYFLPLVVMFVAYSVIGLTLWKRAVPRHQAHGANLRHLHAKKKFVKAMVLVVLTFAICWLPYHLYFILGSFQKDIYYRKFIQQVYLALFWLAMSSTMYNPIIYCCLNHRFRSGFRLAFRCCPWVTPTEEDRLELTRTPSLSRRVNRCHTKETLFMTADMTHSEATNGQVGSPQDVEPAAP

[5] = target: T1, Substance-P receptor; test: The binding affinity towards NK1 receptor in rat cerebral cortex membranes was determined by using 125 [I]-BHSP as radioligand; type: cell membranes, Membrane

T1 sequence (P14600 whole entry): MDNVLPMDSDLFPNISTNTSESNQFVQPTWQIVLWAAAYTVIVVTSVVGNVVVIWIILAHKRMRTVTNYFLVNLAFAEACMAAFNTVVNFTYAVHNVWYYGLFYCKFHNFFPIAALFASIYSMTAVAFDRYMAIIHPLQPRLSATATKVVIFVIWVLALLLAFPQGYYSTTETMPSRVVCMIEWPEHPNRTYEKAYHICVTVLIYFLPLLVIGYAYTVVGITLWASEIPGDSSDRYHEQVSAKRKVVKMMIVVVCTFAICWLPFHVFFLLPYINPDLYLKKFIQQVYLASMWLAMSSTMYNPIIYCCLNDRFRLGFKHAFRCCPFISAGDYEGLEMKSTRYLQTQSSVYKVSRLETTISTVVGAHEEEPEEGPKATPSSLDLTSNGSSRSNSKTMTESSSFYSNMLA

Row | Compound | IC50 [1] [µM] | IC50 [2] [µM] | IC50 [3] [µM] | IC50 [4] [µM] | IC50 [5] [µM]
1 | O=C(N[C@@H]1C2CCN(CC2)[C@@H]1C(c1ccccc1)c1ccccc1)c1ccccc1Cl | > 10 | > 10 | ≥ 100 | ≥ 100 | –
2 | COc1ccccc1CO[C@@H]1C2CCN(CC2)[C@@H]1C(c1ccccc1)c1ccccc1 | ~10 | 0.15 | ≥ 100 | ≥ 100 | –
3 | CSCC[C@H](NC(=O)[C@H](CC(C)C)NC(=O)CNC(=O)[C@@H](NC(=O)[C@H](Cc1ccccc1)NC(=O)[C@H](Cc1ccccc1)NC(=O)[C@H](CC(=O)O)NC(=O)[C@H](Cc1c[nH]cn1)NC(=O)[C@H](CCSC)NC(=O)[C@@H](N)CC(=O)O)C(C)C)C(N)=O [NEUROKININ B] | 0.069 | 0.013 | – | – | –
4 | Clc1ccccc1CCCN[C@@H]1C2CCN(CC2)[C@@H]1C(c1ccccc1)c1ccccc1 | – | 1.1 | ≥ 100 | ≥ 100 | > 10
5 | Cc1ccccc1CN[C@@H]1C2CCN(CC2)[C@@H]1C(c1ccccc1)c1ccccc1 | 0.7 | 0.227 | ≥ 100 | ≥ 100 | –
6 | COc1ccccc1CN[C@@H]1C2CCN(CC2)[C@@H]1C(c1ccccc1)c1ccccc1 | – | – | ≥ 100 | ≥ 100 | –
7 | CSCC[C@H](NC(=O)[C@H](CC(C)C)NC(=O)CNC(=O)[C@@H](NC(=O)[C@H](Cc1ccccc1)NC(=O)[C@H](CO)NC(=O)[C@H](CC(=O)O)NC(=O)[C@@H](NC(=O)[C@H](CCCCN)NC(=O)[C@@H](N)Cc1cnc[nH]1)[C@@H](C)O)C(C)C)C(N)=O [NEUROKININ A] | – | 0.0035 | – | – | –
8 | N[C@@H]1C2CCN(CC2)[C@@H]1C(c1ccccc1)c1ccccc1 | > 10 | > 10 | ≥ 100 | ≥ 100 | –
9 | Clc1ccccc1CN[C@@H]1C2CCN(CC2)[C@@H]1C(c1ccccc1)c1ccccc1 | 0.11 | 0.0085 | ≥ 100 | ≥ 100 | –
10 | FC(F)(F)c1ccccc1CN[C@@H]1C2CCN(CC2)[C@@H]1C(c1ccccc1)c1ccccc1 | 0.74 | 0.033 | ≥ 100 | ≥ 100 | –
11 | c1ccc(CN[C@@H]2C3CCN(CC3)[C@@H]2C(c2ccccc2)c2ccccc2)cc1 | 2 | 0.052 | ≥ 100 | ≥ 100 | –
12 | COc1ccccc1CN[C@H]1C2CCN(CC2)[C@@H]1C(c1ccccc1)c1ccccc1 | – | – | ≥ 100 | ≥ 100 | –
13 | COc1ccccc1CN[C@@H]1C2CCN(CC2)[C@@H]1Cc1ccccc1 | > 1 | 1.51 | ≥ 100 | ≥ 100 | –
14 | Clc1ccccc1CCN[C@@H]1C2CCN(CC2)[C@@H]1C(c1ccccc1)c1ccccc1 | 7.2 | 0.16 | ≥ 100 | ≥ 100 | –
15 | Fc1ccccc1CN[C@@H]1C2CCN(CC2)[C@@H]1C(c1ccccc1)c1ccccc1 | 0.99 | 0.037 | ≥ 100 | ≥ 100 | –
